Source: patent US20250230193A1, “CYCLIC COMPOUND HAVING SELECTIVE KRAS INHIBITORY EFFECT ON HRAS AND NRAS” (CHUGAI SEIYAKU KABUSHIKI KAISHA, priority 2022, published 2025)
Where a SMILES comes first, the peptide text is derived from it. Bridges are numbered along the chain shown (N, C = ends). [ ]: non-standard residue; d: D form. The star is where a group is joined. hPhe(3-Cl-4-CF3) = N[C@@H](CCc1ccc(C(F)(F)F)c(Cl)c1)C(=O)O; NPrPhe(4-CF3) = CCCN[C@@H](Cc1ccc(C(F)(F)F)cc1)C(=O)O; NMeGly(cPent) = CN[C@H](C(=O)O)C1CCCC1; Pro(4S-Me) = C[C@@H]1CN[C@H](C(=O)O)C1; NMeD = CN[C@@H](CC(=O)O)C(=O)O; NMeL = CN[C@@H](CC(C)C)C(=O)O; Morpholide = C1CN(*)CCO1; Ac5c = NC1(C(=O)O)CCCC1; Aze = O=C(O)[C@@H]1CCN1; Sar = CNCC(=O)O

How the values were obtained:
[1] = target: GDP-bound NRAS wild-type protein (Homo sapiens, UniProt P01111); assay: Binding to NRAS by surface plasmon resonance (SPR), Single Cycle Kinetics; settings: SPR; for NRAS/KRAS (ratio of KD value for NRAS to KD value for KRAS) / NRAS/KRAS (ratio of KD value with respect to NRAS to KD value with respect to KRAS): GDP-bound NRAS wild-type vs GDP-bound KRAS wild-type
[2] = target: GDP-bound HRAS wild-type protein (Homo sapiens, UniProt P01112); assay: Binding to HRAS by surface plasmon resonance (SPR), Single Cycle Kinetics; settings: SPR; for HRAS/KRAS (ratio of KD value for HRAS to KD value for KRAS) / HRAS/KRAS (ratio of KD value with respect to HRAS to KD value with respect to KRAS): GDP-bound HRAS wild-type vs GDP-bound KRAS wild-type
Sequence of GDP-bound HRAS wild-type protein (P01112 whole entry): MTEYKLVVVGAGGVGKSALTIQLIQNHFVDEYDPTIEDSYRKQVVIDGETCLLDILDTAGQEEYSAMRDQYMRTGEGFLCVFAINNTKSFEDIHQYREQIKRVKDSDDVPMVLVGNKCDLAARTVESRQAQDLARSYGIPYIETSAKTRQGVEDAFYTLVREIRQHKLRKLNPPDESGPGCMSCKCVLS

Sequence of GDP-bound NRAS wild-type protein (P01111 whole entry): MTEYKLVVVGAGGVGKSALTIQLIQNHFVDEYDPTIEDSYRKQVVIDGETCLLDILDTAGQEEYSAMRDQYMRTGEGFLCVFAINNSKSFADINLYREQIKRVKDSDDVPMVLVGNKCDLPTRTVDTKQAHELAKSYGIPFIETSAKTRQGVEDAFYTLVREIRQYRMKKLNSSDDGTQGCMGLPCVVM

CCO[C@@H]1C[C@H]2C(=O)NC3(CC(C)(C)C3)C(=O)N(C)[C@@H](C3CCCC3)C(=O)N(C)[C@H](C(=O)N(C)CC)CC(=O)N(C)[C@H]3C/C=C/c4ccc(cc4)C[C@@H](C(=O)N(C)CC(=O)N[C@@H](CCc4ccc(Cl)c(Cl)c4)C(=O)N2C1)N1CC/C=C\C[C@@H](C1=O)N(C)C(=O)CN(C)C(=O)[C@H]([C@@H](C)CC)NC3=O [PP3056]
NRAS/KRAS (ratio of KD value with respect to GDP-bound NRAS wild-type protein to KD value with respect to KRAS) ([1]; GDP-bound wild-type proteins): A (a compound having 10 or more and less than 20 is denoted as A) | HRAS/KRAS (ratio of KD value with respect to GDP-bound HRAS wild-type protein to KD value with respect to KRAS) ([2]; GDP-bound wild-type proteins): A (a compound having 10 or more and less than 20 is denoted as A)

CC[C@H](C)[C@@H]1NC(=O)[C@H](C2CC2)N(C)C(=O)C[C@@H](C(=O)N(C)CC)N(C)C(=O)[C@H](C2CCCC2)N(C)C(=O)C2(CC(C)(C)C2)NC(=O)[C@@H]2C[C@H](C)CN2C(=O)[C@H](CCc2cc(F)c(C(F)(F)F)c(F)c2)NC(=O)CN(C)C(=O)[C@H](Cc2ccc(C(F)(F)F)cc2)N2CC/C=C\C[C@@H](C2=O)N(C)C(=O)CN(C)C1=O [PP1980]
NRAS/KRAS (ratio of KD value for NRAS to KD value for KRAS) [1]: A (a compound having 10 or more and less than 20 is denoted as A) | HRAS/KRAS (ratio of KD value for HRAS to KD value for KRAS) [2]: B (a compound having 3 or more and less than 10 is denoted as B)

CCC[C@H]1C(=O)N[C@@H]([C@@H](C)CC)C(=O)N(C)CC(=O)N(C)[C@H]2C/C=C\CCN(C2=O)[C@@H](Cc2ccc(C)cc2)C(=O)N(C)CC(=O)N[C@@H](CCc2cc(F)c(C(F)(F)F)c(F)c2)C(=O)N2C[C@H](OCC)C[C@H]2C(=O)N(C)C2(CCC2)C(=O)N(C)[C@@H](C2CCCC2)C(=O)N(C)[C@H](C(=O)N2CCCCC2)CC(=O)N1C [PP3119, (2S,8S,12R,14S,20S,23S,27S,30S,36S,38Z)-20-cyclopentyl-8-[2-[3,5-difluoro-4-(trifluoromethyl)phenyl]ethyl]-12-ethoxy-4,16,19,22,26,32,35-heptamethyl-30-[(1S)-1-methylpropyl]-23-(piperidine-1-carbonyl)-27-propyl-2-(p-tolylmethyl)spiro[1,4,7,10,16,19,22,26,29,32,35-undecazatricyclo[34.5.1.0^10,14]dotetracont-38-ene-17,1′-cyclobutane]-3,6,9,15,18,21,25,28,31,34,42-undecone]
NRAS/KRAS (ratio of KD value with respect to GDP-bound NRAS wild-type protein to KD value with respect to KRAS) ([1]; GDP-bound wild-type proteins): A (a compound having 10 or more and less than 20 is denoted as A) | HRAS/KRAS (ratio of KD value with respect to GDP-bound HRAS wild-type protein to KD value with respect to KRAS) ([2]; GDP-bound wild-type proteins): A (a compound having 10 or more and less than 20 is denoted as A)

CCCOC[C@H]1C(=O)N[C@@H]([C@@H](C)CC)C(=O)N(C2CC2)CC(=O)N(C)[C@H]2C/C=C\CCN(C2=O)[C@@H](Cc2ccc(C)cc2)C(=O)N(C)CC(=O)N[C@@H](CCc2ccc(C(F)(F)F)c(OC)c2)C(=O)N2C[C@@H](C)C[C@H]2C(=O)N(C)C2(CCC2)C(=O)N(C)[C@@H](C2CCCC2)C(=O)N(C)[C@H](C(=O)N(C)C)CC(=O)N1C [PP2367]
NRAS/KRAS (ratio of KD value with respect to NRAS to KD value with respect to KRAS) [1]: A (a compound having 10 or more and less than 20 is denoted as A) | HRAS/KRAS (ratio of KD value with respect to HRAS to KD value with respect to KRAS) [2]: B (a compound having 3 or more and less than 10 is denoted as B)

C#CC[C@H]1C(=O)N[C@@H]([C@@H](C)CC)C(=O)N(C)CC(=O)N(C)[C@H]2C/C=C\CCN(C2=O)[C@@H](Cc2ccc(C(F)(F)F)cc2)C(=O)N(C)CC(=O)N[C@@H](CCc2cc(F)c(C(F)(F)F)c(F)c2)C(=O)N2C[C@@H](C)C[C@H]2C(=O)NC2(CCC2)C(=O)N(C)[C@@H](C2CCCC2)C(=O)N(C)[C@H](C(=O)N(C)CCC)CC(=O)N1C [PP2077]
NRAS/KRAS (ratio of KD value with respect to NRAS to KD value with respect to KRAS) [1]: A (a compound having 10 or more and less than 20 is denoted as A) | HRAS/KRAS (ratio of KD value with respect to HRAS to KD value with respect to KRAS) [2]: A (a compound having 10 or more and less than 20 is denoted as A)

CC[C@H](C)[C@@H]1NC(=O)[C@H](C2CCC2)N(C)C(=O)C[C@@H](C(=O)N(C)CC)N(C)C(=O)[C@H](C2CCCC2)N(C)C(=O)C2(CC(C)(C)C2)NC(=O)[C@@H]2C[C@H](C)CN2C(=O)[C@H](CCc2ccc(C(F)(F)F)c(OC)c2)NC(=O)CN(C)C(=O)[C@H](Cc2ccc(C(F)(F)F)cc2)N2CC/C=C\C[C@@H](C2=O)N(C)C(=O)CN(C)C1=O [PP2009]
NRAS/KRAS (ratio of KD value for NRAS to KD value for KRAS) [1]: A (a compound having 10 or more and less than 20 is denoted as A) | HRAS/KRAS (ratio of KD value for HRAS to KD value for KRAS) [2]: A (a compound having 10 or more and less than 20 is denoted as A)

CC[C@H](C)[C@@H]1NC(=O)[C@H](CC(C)C)N(C)C(=O)C[C@@H](C(=O)N2CCOCC2)N(C)C(=O)[C@H](C2CCCC2)N(C)C(=O)C2(CCCC2)NC(=O)[C@@H]2CCCN2C(=O)[C@H](CCc2ccc(C(F)(F)F)c(Cl)c2)NC(=O)CN(C)C(=O)[C@H](Cc2ccc(C)cc2)N2CC=CC[C@@H](C2=O)N(C)C(=O)CN(C)C1=O [PP0460]
NRAS/KRAS (ratio of KD value with respect to GDP-bound NRAS wild-type protein to KD value with respect to KRAS) [1]: C (A compound having a KD ratio of 0.1 or more and less than 3 is denoted as C) | HRAS/KRAS (ratio of KD value with respect to GDP-bound HRAS wild-type protein to KD value with respect to KRAS) [2]: C (A compound having a KD ratio of 0.1 or more and less than 3 is denoted as C)

CC[C@H](C)[C@@H]1NC(=O)[C@H](C(C)C)N(C)C(=O)C[C@@H](C(=O)N(C)C)N(C)C(=O)[C@H](C2CCCC2)N(C)C(=O)C2(CC(C)(C)C2)NC(=O)[C@@H]2C[C@H](C)CN2C(=O)[C@H](CCc2ccc(C(F)(F)F)c(OC)c2)NC(=O)CN(C)C(=O)[C@H](Cc2ccc(C(F)(F)F)cc2)N2CC/C=C\C[C@@H](C2=O)N(C)C(=O)CN(C)C1=O [PP2005]
NRAS/KRAS (ratio of KD value for NRAS to KD value for KRAS) [1]: A (a compound having 10 or more and less than 20 is denoted as A) | HRAS/KRAS (ratio of KD value for HRAS to KD value for KRAS) [2]: A (a compound having 10 or more and less than 20 is denoted as A)

CCC[C@H]1C(=O)N[C@@H]([C@@H](C)CC)C(=O)N(C2CC2)CC(=O)N(C)[C@H]2C/C=C\CCN(C2=O)[C@@H](CC2CCC(F)(F)CC2)C(=O)N(C)CC(=O)N[C@@H](CCc2ccc(C(F)(F)F)c(OC)c2)C(=O)N2C[C@H](OCC)C[C@H]2C(=O)N(C)C2(CCC2)C(=O)N(C)[C@@H](C(CC)CC)C(=O)N(C)[C@H](C(=O)N(C)C)CC(=O)N1C [PP2349]
NRAS/KRAS (ratio of KD value with respect to NRAS to KD value with respect to KRAS) [1]: A (a compound having 10 or more and less than 20 is denoted as A) | HRAS/KRAS (ratio of KD value with respect to HRAS to KD value with respect to KRAS) [2]: A (a compound having 10 or more and less than 20 is denoted as A)

CCCN1C(=O)[C@@H]2CCN2C(=O)CN(C)C(=O)[C@H]([C@@H](C)CC)NC(=O)[C@H](CC(C)C)N(C)C(=O)C[C@@H](C(=O)N2CCOCC2)N(C)C(=O)[C@H](C2CCCC2)N(C)C(=O)C2(CCCC2)NC(=O)[C@@H]2C[C@H](C)CN2C(=O)[C@H](CCc2ccc(C(F)(F)F)c(Cl)c2)NC(=O)CN(C)C(=O)[C@@H]1Cc1ccc(C(F)(F)F)cc1 [PP0457] ([NMeL]I[Sar][Aze][NPrPhe(4-CF3)][Sar][hPhe(3-Cl-4-CF3)][Pro(4S-Me)][Ac5c][NMeGly(cPent)][NMeD]-Morpholide; lactam N-11)
NRAS/KRAS (ratio of KD value with respect to GDP-bound NRAS wild-type protein to KD value with respect to KRAS) [1]: C (A compound having a KD ratio of 0.1 or more and less than 3 is denoted as C) | HRAS/KRAS (ratio of KD value with respect to GDP-bound HRAS wild-type protein to KD value with respect to KRAS) [2]: B (a compound having 3 or more and less than 10 is denoted as B)

CC[C@H](C)[C@@H]1NC(=O)[C@H](C)N(C)C(=O)C[C@@H](C(=O)N2CCOCC2)N(C)C(=O)[C@H](C2CCCC2)N(C)C(=O)C2(CCC2)NC(=O)[C@@H]2CC(F)(F)CN2C(=O)[C@H](CCc2cc(F)c(C(F)(F)F)c(F)c2)NC(=O)CN(C)C(=O)[C@H](Cc2ccc(C(F)(F)F)cc2)N2CCCCC[C@@H](C2=O)N(C)C(=O)CN(C)C1=O [PP0471]
NRAS/KRAS (ratio of KD value with respect to GDP-bound NRAS wild-type protein to KD value with respect to KRAS) [1]: B (a compound having 3 or more and less than 10 is denoted as B) | HRAS/KRAS (ratio of KD value with respect to GDP-bound HRAS wild-type protein to KD value with respect to KRAS) [2]: B (a compound having 3 or more and less than 10 is denoted as B)

CCO[C@@H]1C[C@H]2C(=O)NC3(CCC3)C(=O)N(C)[C@@H](C3CCCC3)C(=O)N(C)[C@H](C(=O)N(C)C)CC(=O)N(C)[C@@H](CC3CCCCC3)C(=O)N[C@@H]([C@@H](C)CC)C(=O)N(C)CC(=O)N(C)[C@H]3CCCCN(C3=O)[C@@H](Cc3ccc(C(F)(F)F)cc3)C(=O)N(C)CC(=O)N[C@@H](CCc3cc(F)c(C(F)(F)F)c(F)c3)C(=O)N2C1 [PP0701]
NRAS/KRAS (ratio of KD value with respect to GDP-bound NRAS wild-type protein to KD value with respect to KRAS) [1]: C (A compound having a KD ratio of 0.1 or more and less than 3 is denoted as C) | HRAS/KRAS (ratio of KD value with respect to GDP-bound HRAS wild-type protein to KD value with respect to KRAS) [2]: B (a compound having 3 or more and less than 10 is denoted as B)

CCCN(C)C(=O)[C@@H]1CC(=O)N(C)[C@@H](CC)C(=O)N[C@@H]([C@@H](C)CC)C(=O)N(C)CC(=O)N(C)[C@H]2C/C=C\CCN(C2=O)[C@@H](Cc2ccc(C(F)(F)F)cc2)C(=O)N(C)CC(=O)N[C@@H](CCc2cc(F)c(C(F)(F)F)c(F)c2)C(=O)N2C[C@H](OCC)C[C@H]2C(=O)NC2(CCC2)C(=O)N(C)[C@@H](C2CCCC2)C(=O)N1C [PP1699]
NRAS/KRAS (ratio of KD value for NRAS to KD value for KRAS) [1]: A (a compound having 10 or more and less than 20 is denoted as A) | HRAS/KRAS (ratio of KD value for HRAS to KD value for KRAS) [2]: A (a compound having 10 or more and less than 20 is denoted as A)
